Experimental data published in patent publication US5281598A, “Piperazine derivatives” (Akzo N.V., priority 1992, dated 1994).

Assays:
α1 adrenoceptor [1] = assay: α1 adrenoceptor affinity, prazosin (PRA) binding
Protocol: (§1) The activities are expressed as pKi values (-log Ki values; Ki being the binding constant). The sigma receptor binding was assessed by the 1,3-di-o-tolylguanidine (DTG) binding as described by Fox et al., Eur. J. Pharmacol., 193, 139-143, 1991. The α1 adrenoceptor affinity was assessed by the prazosin (PRA) binding as described by de Boer et al., Arzneim. Forsch., 40, 550-554, 1990.

sigma receptor [2] = assay: sigma receptor binding, 1,3-di-o-tolylguanidine (DTG) binding; details: 1,3-di-o-tolylguanidine binding
Protocol: as §1

sigma receptor [3] = details: in words; disclosed in WO 91/09594; cited from earlier work
α1 adrenoceptor [4] = assay: α1 adrenoceptor activity of the prior art compounds (statement in background); details: in words
[5] = in words; literature (Tamminga and Gerlach); cited from earlier work

| Compound | PRA pKi (-log Ki) (α1 adrenoceptor [1]) | DTG pKi (-log Ki) (sigma receptor [2]) | sigma receptor affinity (sigma receptor [3]) | α1 adrenoceptor activity (α1 adrenoceptor [4]) | induction of orthostatic hypotension [5] |
| --- | --- | --- | --- | --- | --- |
| c1ccc(CCCN2CCN(c3ccccc3)CC2)cc1 [Compound 46 of WO 91/09594] | 8.7 | 8.2 | displaying sigma receptor affinity | possess α1 adrenoceptor activity | – |
| c1ccc(CCCCN2CCN(Cc3ccccc3)CC2)cc1 [Compound 79 of WO 91/09594] | 7.4 | 8.6 | displaying sigma receptor affinity | possess α1 adrenoceptor activity | – |
| Cl.Cl.c1ccc(CCCN2CCN(CCOCc3ccccc3)CC2)cc1 [Compound of Example 1, 1-[2-(phenylmethoxy)ethyl]-4-(3-phenylpropyl)piperazine dihydrochloride] | 5.7 | 8.7 | – | – | – |
| CN1CCN(C2=Nc3cc(Cl)ccc3Nc3ccccc32)CC1 [clozapine] | – | – | – | – | induction of orthostatic hypotension |
